From patent publication US4061540A, “Cholesterol oxidaze and process for preparing same” (Kikkoman Shoyu Co., Ltd., priority 1975, dated 1977)

Columns and labels:
cholesterol oxidase [1] = assay: Inhibition of the enzyme; type: biochemical, Corynebacterium cholesterolicum
cholesterol oxidase [2] = assay: Action and substrate specificity: relative activity by hydrogen peroxide formation (peroxidase/4-aminoantipyrine/phenol, absorbance at 500 nm); type: biochemical, Corynebacterium cholesterolicum
Method: All the above-mentioned values of relative activity (%) refer to the relative amounts of hydrogen peroxide formed from the substances oxidized by cholesterol oxidase, where the activity to cholesterol is taken as 100. The activity was measured by the following procedure.
A substrate solution was prepared by mixing 50 microliter of a 0.38 micromolar solution of cholesterol in isopropanol with 3 milliliter of 0.1 M phosphate buffer (pH 7.0; it contains 0.82 millimoles of 4-aminoantipyrine, 14 millimoles of phenol, 0.17 millimoles of Carbowax 6000 and 0.3% Triton X-100). The resulting substrate solution was incubated for 5 minutes in a cell of light path, 10 mm, kept at 37° C.
50 microliter of an enzyme solution containing 2.5 U of peroxidase and 0.1 U of cholesterol oxidase was added. The increase in absorbance at 500 nm was measured at 37° C. The initial velocity was obtained from the increase in absorbance, from which the relative activity was computed. [Literature: Charles C. Allain, Lucy S. Poon, Cicely G. Chan, W. Richmond and Paul C. Fu, Clin. Chem. 20, 470 (1974)].

cholesterol oxidase [3] = assay: Km value by the ultraviolet absorption method; type: biochemical, Corynebacterium cholesterolicum
Method: (§1) Enzymatic activity was measured by ultraviolet absorption method [Clin. Chem. 20, 470 (1974)]. A substrate solution was prepared by dissolving 5 ml of a 300 mg/dl solution of cholesterol in isopropanol into 300 ml of phosphate buffer (pH 7.0) containing 0.05% of Triton X-100. 20 microliter of enzyme solution was added to 3.0 ml of the substrate solution, and the resulting mixture was reacted at 37° C for 15 minutes. Increase in the absorption at 240 nm, assignable to cholest-4-en-3-one resulting from the reaction, was measured.

[4] = Isoelectric point by isoelectric focusing; type: physicochemical; conditions: pH, carrier ampholyte pH 3-10, 900 V, 50 hours, 4° C
Method: The enzyme has an isoelectric point of pH 8.7, as measured by the method of isoelectric focusing. Thus, 10 mg of a purified enzyme was introduced into a 110 ml column packed with a carried ampholyte kept at pH 3-10 [LKB-Producter, commercial name of a product manufactured by AB Co.; cf. Biochem. Biophys. Acta, 133, 435 (1967)]. An electric current was passed at a voltage of 900 V for a period of 50 hours, while the column was cooled to 4° C.

[5] = Optimum pH and optimum temperature for the action of the enzyme; type: biochemical
Method: The optimum pH is in the vicinity of 7.0 when the substrate is cholesterol.
When the reaction time is 15 minutes, the optimum temperature is 40° C.
as §1

[6] = Relative activities of various enzymes exhibited to pregnenolone and cholesterol; type: biochemical; conditions: ratio of activity to pregnenolone over cholesterol; source of values for known enzymes not stated
Description: This enzyme oxidizes the hydroxyl group of steroids at […], and exerts no action upon other position of hydroxyl groups, such as 3α, 17β, etc., nor upon ester groups.

[7] = type: physicochemical; conditions: treated at 30° C for 1 hour
Method: It keeps stable in the pH range of 5-9 when treated at 30° C for 1 hour.

[8] = relative amounts of hydrogen peroxide formed, activity to cholesterol taken as 100, initial velocity, 37° C, pH 7.0

| Compound | Relative activity (%) (cholesterol oxidase [2]; [8]) | other results |
| --- | --- | --- |
| Oc1cccc2cccnc12 [8-hydroxyquinoline] |  | Inhibition of the enzyme (in words) (cholesterol oxidase [1]): not inhibited |
| [Ag+] [Ag^+] |  | Inhibition of the enzyme (in words) (cholesterol oxidase [1]): inhibited |
| C[C@]12CC[C@@H](O)C[C@@H]1CC[C@@H]1[C@@H]2CC[C@]2(C)C(=O)CC[C@@H]12 [Androsterone] |  | Relative activity (%) (cholesterol oxidase [2]; pH 7): 0% |
| CC(=O)O[C@H]1CC[C@@]2(C)C(=CC[C@H]3[C@@H]4CC[C@H]([C@H](C)CCCC(C)C)[C@@]4(C)CC[C@@H]32)C1 [Cholesterol acetate] | 0% |  |
| CC(C)CCC[C@@H](C)[C@H]1CC[C@H]2[C@@H]3CC=C4C[C@@H](O)CC[C@]4(C)[C@H]3CC[C@]12C [Cholesterol] | 100% | Km (cholesterol oxidase [3]): 54 µM |
| C[C@H](CCC(=O)O)[C@H]1CC[C@H]2[C@@H]3[C@H](O)C[C@@H]4C[C@H](O)CC[C@]4(C)[C@H]3C[C@H](O)[C@]12C [Cholic acid] | 0% |  |
| C[C@]12CC[C@H](O)CC1=CC[C@@H]1[C@@H]2CC[C@]2(C)C(=O)CC[C@@H]12 [Dehydro-epiandrosterone] | 57% |  |
| C[C@]12CC[C@H](O)C[C@H]1CC[C@@H]1[C@@H]2CC[C@]2(C)[C@@H](C3=CC(=O)OC3)CC[C@]12O [Digitoxigenin] | 0% |  |
| C[C@@H]1CC[C@@]2(OC1)O[C@H]1C[C@H]3[C@@H]4CC=C5C[C@@H](O)CC[C@]5(C)[C@H]4CC[C@]3(C)[C@H]1[C@@H]2C [Diosgenin] | 0% |  |
| O=C(O)CN(CCN(CC(=O)O)CC(=O)O)CC(=O)O [EDTA] |  | Inhibition of the enzyme (in words) (cholesterol oxidase [1]): not inhibited |
| CC(C)[C@@H](C)/C=C/[C@@H](C)[C@H]1CC[C@H]2C3=CC=C4C[C@@H](O)CC[C@]4(C)[C@H]3CC[C@]12C [Ergosterol] | 13% |  |
| [Hg+2] [Hg^2+] |  | Inhibition of the enzyme (in words) (cholesterol oxidase [1]): inhibited |
| CC(=O)[C@H]1CC[C@H]2[C@@H]3CC=C4C[C@@H](O)CC[C@]4(C)[C@H]3CC[C@]12C [Pregnenolone] | 416% | Km (cholesterol oxidase [3]): 31 µM |
| CC[C@H](/C=C/[C@@H](C)[C@H]1CC[C@H]2[C@@H]3CC=C4C[C@@H](O)CC[C@]4(C)[C@H]3CC[C@]12C)C(C)C [Stigmasterol] | 17% |  |
| C[C@]12CC[C@H]3[C@@H](CCC4=CC(=O)CC[C@@]43C)[C@@H]1CC[C@@H]2O [Testosterone] | 0% |  |
| C=C1CC[C@H](O)C/C1=C/C=C1\CCC[C@]2(C)[C@@H]([C@H](C)CCCC(C)C)CC[C@@H]12 [Vitamin D3] | 0% |  |
| c1cnc2c(c1)ccc1cccnc12 [o-phenanthroline] |  | Inhibition of the enzyme (in words) (cholesterol oxidase [1]): not inhibited |
| O=C(O)c1cc[c]([Hg][Cl])cc1 [p-chloromercuribenzoate] |  | Inhibition of the enzyme (in words) (cholesterol oxidase [1]): inhibited |
| CC(C)CCC[C@@H](C)[C@H]1CC[C@H]2[C@@H]3CC[C@H]4C[C@@H](O)CC[C@]4(C)[C@H]3CC[C@]12C [β-Cholestanol] | 43% |  |
| C[C@]12CC[C@@H]3c4ccc(O)cc4CC[C@H]3[C@@H]1CC[C@@H]2O [β-Estradiol] | 0% |  |
| CC[C@H](CC[C@@H](C)[C@H]1CC[C@H]2[C@@H]3CC=C4C[C@@H](O)CC[C@]4(C)[C@H]3CC[C@]12C)C(C)C [β-Sitosterol] | 54% |  |
| cholesterol oxidase |  | isoelectric point [4]: 8.7; optimum temperature for the action ([5]; reaction time 15 minutes): 40 °C; Optimum pH ([5]; substrate is cholesterol): ~7.0; relative activities exhibited to pregnenolone and cholesterol [6]: 4.16; pH range in which it keeps stable [7]: 5-9 |
